# Assay results reported in BindingDB's records for doi:10.1021/jm070130j (Johnson & Johnson Pharmaceutical, 2007).
# Target: Free fatty acid receptor 1 (Homo sapiens, UniProt O14842)
# Assay: GPR40 FDSS Assay
# Settings: 37 °C
# Protocol: Human embryonic kidney (HEK293) cells expressing human GPR40 receptors were grown in Dulbecco modified Eagles medium (DMEM)/F12 media supplemented with 10% fetal FBS and glutamine. Changes in ligand-induced calcium-dependent intracellular fluorescence were measured with a fluorometric plate reader (FDSS; Hamamatsu Corp., Bridgewater, NJ).
# Chain of Free fatty acid receptor 1 (O14842 whole entry): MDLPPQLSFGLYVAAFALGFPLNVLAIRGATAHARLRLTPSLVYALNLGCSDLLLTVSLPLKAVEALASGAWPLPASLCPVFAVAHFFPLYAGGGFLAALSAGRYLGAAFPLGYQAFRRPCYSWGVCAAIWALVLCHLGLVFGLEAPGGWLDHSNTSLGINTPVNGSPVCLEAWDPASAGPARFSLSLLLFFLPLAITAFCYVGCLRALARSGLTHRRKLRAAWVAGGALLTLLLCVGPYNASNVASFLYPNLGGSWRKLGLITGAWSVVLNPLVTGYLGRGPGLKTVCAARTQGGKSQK
row,Structure (SMILES),EC50 [nM]
1,CCCCOc1ccc(C(CCCC(=O)O)c2ccccc2)cc1 (stereo not given) [5-(4-butoxyphenyl)-5-phenylpentanoic acid],> 10000
2,CCCCOc1ccc(C(CC(=O)O)c2cccs2)cc1 (stereo not given) [3-(4-butoxyphenyl)-3-(thiophen-2-yl)propanoic acid],1290
3,CCCCCOc1ccc(C(CC(=O)O)c2ccccc2)cc1 (stereo not given) [3-[4-(pentyloxy)phenyl]-3-phenylpropanoic acid],2970
4,CCCCOc1ccc(C(CC(=O)O)c2ccccc2)cc1 (stereo not given) [3-(4-butoxyphenyl)-3-phenylpropanoic acid],1200
5,CC(C)CCOc1ccc(C(CC(=O)O)c2ccccc2)cc1 (stereo not given) [3-[4-(3-methylbutoxy)phenyl]-3-phenylpropanoic acid],1860
6,CCCCOc1ccc(C(CC(=O)O)c2ccc(C(F)(F)F)cc2)cc1 (stereo not given) [3-(4-butoxyphenyl)-3-[4-(trifluoromethyl)phenyl]propanoic acid],> 10000
7,CCC(C)COc1ccc(C(CC(=O)O)c2ccccc2)cc1 (stereo not given) [3-[4-(2-methylbutoxy)phenyl]-3-phenylpropanoic acid],300
8,CCCOc1ccc(C(CC(=O)O)c2ccccc2)cc1 (stereo not given) [3-phenyl-3-(4-propoxyphenyl)propanoic acid],4800
9,C/C=C/COc1ccc(C(CC(=O)O)c2ccccc2)cc1 (stereo not given) [3-{4-[(2E)-but-2-en-1-yloxy]phenyl}-3-phenylpropanoic acid],2710
10,CCCCCOc1cccc(C(CC(=O)O)c2ccccc2)c1 (stereo not given) [3-[3-(pentyloxy)phenyl]-3-phenylpropanoic acid],> 10000
